Our source for the MIC and IC50 values is patent US11731939B1, “Indole-based chalcone compounds as antibacterial agents” (KING FAISAL UNIVERSITY, priority 2023, dated 2023).

In brackets after ≈: the same amount, converted by molar mass. Read-outs that look alike come from different tables or passages of the source. Bounds are passed on as bounds.

Assay [1] has as its system Staphylococcus aureus ATCC 29213. The experiment in a line: Antibacterial activity, dilution susceptibility test (CLSI M07-A10). The class given is cell-based. As to conditions: ATCC29213.
Assay [2] relates to Staphylococcus aureus ATCC BAA-1556 (MERSA resistant). Described as above. Type of assay: cell-based. As to conditions: ATCCBAA1556.
The subject of assay [3] is Staphylococcus epidermidis. The description is as above. The class given is cell-based.
Assay [4] concerns Bacillus subtilis MTCC 441. Described as above. Type of assay: cell-based. As to conditions: MTCC441.
Assay [5] deals with Enterococcus faecium ATCC 35667. The description is as above. As to conditions: ATCC35667. Type of assay: cell-based.
Assay [6] deals with Enterococcus faecium ATCC 51559 (VRE resistant). The assay is described as above. Type of assay: cell-based.
Assay [7] has as its system Klebsiella pneumonia MTCC 618. The description is as above. Type of assay: cell-based. As to conditions: Klebsiella pneumoniae, MTCC618.
The subject of assay [8] is Escherichia coli MTCC 443. The description is as above. Type of assay: cell-based. As to conditions: MTCC443.
In assay [9] the test system is Pseudomonas aeruginosa MTCC 741. The assay is described as above. Type of assay: cell-based. As to conditions: MTCC741.
Assay [10] deals with Mycobacterium tuberculosis H37Rv strain. The assay is described as follows: Anti-tubercular properties, alamar blue microplate MIC. The class given is cell-based. As to conditions: 168 h, M. tuberculosis H37Rv, seven days at 37° C., read-out: anti-mycobacterial activity (MIC).
For the next assay, the target named is T1, DNA gyrase from E. coli (Escherichia coli, UniProt P0AES4+P0AES6).
T1 construct: purchased Inspiralis
T1 sequence (P0AES4 whole entry, one chain of several): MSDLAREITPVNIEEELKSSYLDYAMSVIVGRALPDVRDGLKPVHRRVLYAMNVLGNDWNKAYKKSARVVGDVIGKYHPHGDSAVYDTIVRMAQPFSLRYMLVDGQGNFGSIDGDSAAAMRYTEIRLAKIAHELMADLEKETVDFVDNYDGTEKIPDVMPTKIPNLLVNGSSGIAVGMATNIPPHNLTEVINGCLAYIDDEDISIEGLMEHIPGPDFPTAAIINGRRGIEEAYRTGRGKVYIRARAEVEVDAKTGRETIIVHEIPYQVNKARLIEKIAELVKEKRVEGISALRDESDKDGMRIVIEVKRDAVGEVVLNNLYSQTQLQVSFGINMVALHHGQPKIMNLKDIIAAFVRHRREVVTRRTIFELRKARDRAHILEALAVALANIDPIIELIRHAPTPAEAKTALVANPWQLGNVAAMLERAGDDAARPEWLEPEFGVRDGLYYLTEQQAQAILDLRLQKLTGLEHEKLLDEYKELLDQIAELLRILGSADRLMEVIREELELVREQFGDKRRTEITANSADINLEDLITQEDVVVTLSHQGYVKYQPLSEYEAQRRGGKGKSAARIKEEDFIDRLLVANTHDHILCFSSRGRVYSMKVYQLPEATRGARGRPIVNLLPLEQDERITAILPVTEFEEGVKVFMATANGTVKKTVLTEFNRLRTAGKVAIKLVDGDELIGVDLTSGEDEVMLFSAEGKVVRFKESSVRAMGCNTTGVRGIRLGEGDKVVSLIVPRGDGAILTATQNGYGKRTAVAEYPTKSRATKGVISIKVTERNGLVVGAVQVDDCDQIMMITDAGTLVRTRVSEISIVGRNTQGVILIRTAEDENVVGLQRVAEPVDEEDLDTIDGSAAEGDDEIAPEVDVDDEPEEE
The assay is described as follows: Inhibitory activity on E. coli DNA gyrase (Inspiralis assay). The class given is biochemical. On the procedure: Inhibitory potencies were investigated utilizing the Inspiralis assay on streptavidin-coated 96-well microtiter plates. First, the plates were rehydrated with buffer (20 mM Tris-HCl with pH 7.6, 0.01% w/v BSA, 0.05% v/v Tween 20, 137 mM NaCl) and the biotinylated oligonucleotide was then immobilized. After washing off the unbound oligonucleotide, the enzyme test was performed. […] Reaction solutions were incubated at 37° C. for 30 min. After that, the TF buffer (50 mM NaOAc with pH 5.0, 50 mM NaCl and 50 mM MgCl2) was added to terminate the enzymatic reaction. After additional incubation for 30 min at rt, during which biotinoligonucleotide-plasmid triplex was formed, the unbound plasmid was washed off using TF buffer and SybrGOLD in T10 buffer (10 mM Tris HCl with pH 8.0 and 1 mM EDTA) was added. The fluorescence was measured with a microplate reader (BioTek Synergy H4, excitation: 485 nm, emission: 535 nm). Initial screening was done at 100 or 10 μM concentration of inhibitors. […] GraphPad Prism software was used to calculate the IC50 values. The result is given as the average value of three independent measurements.

As to `CNc1cc(F)cc2c(/C=C/C(=O)c3ccc(C(=O)O)cc3)c[nH]c12` [Compound 1, (E)-4-(3-(5-fluoro-7-(methylamino)-1H-indol-3-yl)acryloyl)benzoic acid], the MIC came out at 0.75 µg/mL (≈ 2.22 µM) in assay [1]; 0.75 µg/mL (≈ 2.22 µM) in [2]; 1 µg/mL (≈ 2.96 µM) in [3] (read-out: MIC); 0.25 µg/mL (≈ 0.739 µM) in assay [4] (Bacillus subtilis MTCC 441, read-out: MIC); 1 µg/mL (≈ 2.96 µM) in assay [5] (Enterococcus faecium ATCC 35667, read-out: MIC); 0.5 µg/mL (≈ 1.48 µM) in assay [6] (Enterococcus faecium ATCC 51559 (VRE resistant), read-out: MIC). Moreover, the MIC in assay [7] (Klebsiella pneumonia MTCC 618, read-out: MIC) stood at 0.75 µg/mL (≈ 2.22 µM); in assay [8] (Escherichia coli MTCC 443, read-out: MIC), 0.75 µg/mL (≈ 2.22 µM); in assay [9] (Pseudomonas aeruginosa MTCC 741, read-out: MIC) it was 0.5 µg/mL (≈ 1.48 µM); in [10] it was 2 µg/mL (≈ 5.91 µM). Further, the IC50 at DNA gyrase from E. coli was found to be 150 nM.
In the case of `CN[C@H](CC(C)C)C(=O)N[C@H]1C(=O)N[C@@H](CC(N)=O)C(=O)N[C@H]2C(=O)N[C@H]3C(=O)N[C@H](C(=O)N[C@H](C(=O)O)c4cc(O)cc(O)c4-c4cc3ccc4O)[C@H](O)c3ccc(c(Cl)c3)Oc3cc2cc(c3O[C@@H]2O[C@H](CO)[C@@H](O)[C@H](O)[C@H]2O[C@H]2C[C@](C)(N)[C@H](O)[C@H](C)O2)Oc2ccc(cc2Cl)[C@H]1O` [Vancomycin, reference compound], the minimal inhibitory concentration (MIC) in assay [3] is 1 µg/mL (≈ 0.69 µM); in [4] (Bacillus subtilis), 0.5 µg/mL (≈ 0.345 µM); in assay [5] (Enterococcus faecium), 0.5 µg/mL (≈ 0.345 µM); in assay [6] (Enterococcus faecium), greater than 128 µg/mL; in assay [7], greater than 128 µg/mL; in [8] (Escherichia coli), greater than 128 µg/mL. For the same molecule, the MIC in [9] (Pseudomonas aeruginosa) was greater than 128 µg/mL.

Broadly, the MIC is the smallest concentration in the dilution series that meets the test's criterion for growth inhibition. The IC50 is the concentration needed to halve the response being measured.
